Entries after “also recorded” stand apart in the source; their conditions may differ.
Key:
DSS-induced colitis [1] = test: DSS-induced colitis in mice, MC-12 5 or 25 mg/kg ip or po (Example 4); type: in vivo; conditions: for reduction of histological score compared to DSS control: p<0.01
Experimental: (§1) Female C57BL/6 and SJL/J mice (Taconic, Hudson, N.Y.), 7-9 weeks old, were kept under controlled temperature (25° C.) with a 12/12-hour light-dark cycle and free access to standard diet and drinking water. The mice were allowed to acclimate for 7 days before the start of experiments.
The mice received 2% dextran sulfate sodium (DSS, MW 36,000 to 50,000, MP Biomedicals, Solon, Ohio) in drinking water for 8 days; control mice received regular drinking water. During the period when DSS was administered, treated mice were given MC-12 at 5 or 25 mg/kg intraperitoneally (ip) whereas the control group was given saline ip. As above, the mice were weighed and monitored for rectal bleeding or prolapse daily. All mice were euthanized at the end of the study period. Blood samples were collected and colons were dissected and their length was measured. The middle part of colon was fixed in 4% neutralized formalin and the rest was frozen for molecular analyses. Paraffin-embedded tissue sections were stained and scored as above.
The fixed colon was cut into six equal fragments, dehydrated and embedded into paraffin. The tissue sections were stained with hematoxylin and eosin (H&E). The histological score was determined by two pathologists as described, based on the degree (0-3) and extent (0-3) of inflammation, crypt damage (0-4) and the area involved (0-4). The scores of each of the first three parameters were multiplied by the fourth and the sum of these three multiples was the final score (ranging from 0 to 40).

NF-κB = test: Phospho-NF-κB p65 immunohistochemistry of colonic mucosa, DSS mice; type: in vivo; conditions: for NF-κB activation / nuclear translocation in colonic mucosa: MC-12 5 and 25 mg/kg, ip and po
Source text: NF-κB is the master regulator of inflammation, controlling the transcription of many genes related to this complex process. It is also the molecular target of the activity of MC 12. Therefore, we determined by immunohistochemistry the level of NF-κB activation in the colonic mucosa of our four study groups of mice. There was minimum or […] activation of NF-κB in the colon of control animals (FIG. 4A). DSS, as expected, activated NF-κB in both colonic crypts and stromal cells (FIG. 4B).
The level of NF-κB activation in the colonic mucosa was determined by immunohistochemistry (FIG. 9). NF-κB is the molecular target of MC-12. Immunohistochemical staining for phospho-NF-κB (activate form of NF-κB) was performed on the colon tissue samples. Briefly, paraffin-embedded sections (4 μm thick) were deparaffinized, rehydrated, and microwave heated for 15 minutes in 0.01 mol/L citric acid buffer (pH 6.0) for antigen retrieval. Then, 3% hydrogen peroxide was applied to block endogenous peroxidase activity. After 30 minutes of blocking with normal serum (Invitrogen, Carlsbad, Calif.), the primary rabbit anti-phospho-NF-κB p65 antibody (Cell Signaling) or corresponding control isotype IgG were applied and incubated overnight at 4° C. Slides were washed thrice with PBS, each for 5 minutes. The biotinylated secondary antibody and the streptavidin-biotin complex were applied, each for 60 minutes incubation and following a thrice-wash at room temperature. After rinsing with PBS, the slides were immersed for 10 minutes in 3,3′-diaminobenzidine (Sigma, St. Louis, Mo.) solution (0.4 mg/mL, with 0.003% hydrogen peroxide), monitored under microscope. The reactions were stopped with distilled water. The slides were counterstained with hematoxylin, dehydrated, and coverslipped. Five photos per section were taken and the positive luminosity was evaluated using PhotoShop program.

myeloperoxidase (MPO) = test: Myeloperoxidase activity in colon tissue of DSS-treated mice; type: in vivo
Experimental: To further assess the effect of MC12 on the inflammatory changes associated with DSS induced colitis, myeloperoxidase (MPO) activity and cytosolic phospholipase A2 (cPLA2) in tissue samples was determined.
MPO activity is an indicator of the degree of acute inflammation in a given tissue. MPO activity was measured using a commercial kit and following the instructions of the manufacturer (Invitrogen, Eugene, Oreg.). Briefly, a portion of colon tissue was homogenized in PBS and centrifuged at 10,000×g for 15 min and 50 μl of supernatant from each sample were added into a 96-well microplate. 50 μl of 2×APF working solution was added to all sample and standard wells and the plate was incubated at room temperature for 30 min. The reaction was stopped by adding 10 μl of 10× chlorination inhibitor. The fluorescence intensity was measured using a Multiplate Reader (Molecular Devices) at excitation at 485 nm, emission at 530 nm.
To assess the effect of MC-12 on the inflammatory changes associated with DSS-induced colitis, myeloperoxidase activity in tissue samples was determined as above.

DSS-induced colitis [2] = test: DSS-induced colitis in mice, MC12 40 or 80 μg/mouse ip (Example 1); type: in vivo
Experimental: as §1
The mice received 2% dextran sulfate sodium (DSS, MW 36,000 to 50,000, MP Biomedicals, Solon, Ohio) in drinking water for 7 days; control mice received regular drinking water. During the period when DSS was administered, treated mice were given MC12 40 or 80 μg/mouse intraperitoneally (i.p.) whereas the control group was given saline i.p. The mice were weighed and monitored for rectal bleeding or prolapse daily. All mice were euthanized at the end of the study. Blood samples were collected and colons were dissected and their length was measured. The middle part of colon was fixed in 4% neutralized formalin and the rest was frozen for molecular analyses.
Paraffin-embedded tissue sections were stained with hematoxylin and eosin (H&E). In these sections, the histological score was determined based on epithelial denudation, loss of crypts, ulceration, edema and leukocyte infiltration using criteria that have been described previously (see Perretti, F. et al., 2009, Nat Rev Immunol 9:62-70)

[3] = test system: NF-κB in NCM 460 cells (normal colon epithelial cells); test: NF-κB DNA binding activity (EMSA) in DSS-treated NCM460 cells; type: cell-based
[4] = 2% DSS, MC12 40 or 80 μg/mouse ip

In the case of Gln-Ala-Trp (QAW) [MC12], the “reduction of histological score compared to DSS control” value (DSS-induced colitis [1]; 5 mg/kg ip) is reported as 48.9%, the “DSS-induced colonic inflammation (H&E histology)” value (DSS-induced colitis [1]; 25 mg/kg ip) is reported as “significantly decreased DSS-induced colonic inflammation” and the “reduction of histological score compared to DSS control” value (DSS-induced colitis [1]; 25 mg/kg ip) is reported as 66.8%. For the same substance, the weight loss (DSS-induced colitis [1]; 2% DSS 8 days, MC-12 5 or 25 mg/kg) was “prevented such weight loss in a dose-dependent manner”, the “colon length (DSS-induced reduction)” value (DSS-induced colitis [1]; 2% DSS 8 days, MC-12 5 or 25 mg/kg, ip and po) was “prevented this reduction in colon length in a dose-dependent manner” and the “prevention of weight loss, ip compared to po” value (DSS-induced colitis [1]; 2% DSS 8 days, ip vs po) was “more effective in preventing weight loss when given ip compared to po”. The “NF-κB activation in colonic mucosa” value (NF-κB; MC12 40 and 80 μg ip) was “less NF-κB nuclear translocation; also recorded: markedly decreased this effect of DSS”, the “NF-κB activation / nuclear translocation in colonic mucosa” value (NF-κB; listed as MC 12) was “marked decrease of NF-κB nuclear translocation” and the “NF-κB activation / nuclear translocation in colonic mucosa” value (NF-κB; listed as MC-12) was “markedly decreased this effect of DSS in a clear dose-dependent manner”. The “NF-κB activation in colonic mucosa” value (NF-κB; highest dose 25 mg/kg) was “essentially normalizing it”, the MPO activity (myeloperoxidase (MPO); MC12 80 μg dose) was “essentially normalized” and the MPO activity (myeloperoxidase (MPO); MC12 40 or 80 μg) was “significant (p<0.01) and concentration-dependent reduction in MPO activity”. For the same substance, the MPO activity (myeloperoxidase (MPO); MC-12 25 mg/kg) was “essentially normalized”, the MPO activity (myeloperoxidase (MPO); MC-12 5 or 25 mg/kg) was “significant (p<0.01) and concentration-dependent reduction in MPO activity” and the “DSS-induced colonic inflammation (H&E histology)” value (DSS-induced colitis [2]; 40 μg per mouse ip) was “significantly decreased DSS-induced colonic inflammation”. The “DSS-induced colonic inflammation (H&E histology)” value (DSS-induced colitis [2]; 80 μg per mouse ip) was “also decreased DSS-induced colonic inflammation”, the weight loss (DSS-induced colitis [2]; 2% DSS 7 days, MC12 40 or 80 μg/mouse ip) was “dose-dependent reduction in weight loss” and the “colon length (DSS-induced reduction)” value (DSS-induced colitis [2]; [4]) was “prevented this reduction in colon length in a dose-dependent manner”. For the same substance, the histological colitis score (DSS-induced colitis [2]; [4]) was “reduced the histological colitis score dose-dependently”, the “change in body weight” value (DSS-induced colitis [2]; 2% DSS, higher dose 80 μg/day ip, day 7) was “essentially no change in their weight” and the “histological colitis score, significance of reduction” value (DSS-induced colitis [2]; higher MC12 dose (80 μg)) was “statistically significant”. For the same substance, the “DSS-induced NF-κB-DNA binding activity (NF-κB activation)” value (from here on “DSS-induced NF-κB-DNA binding activity”) ([3]; 30 μM, listed as MC 12) was “significantly blocked this effect”, the “DSS-induced NF-κB-DNA binding activity” value ([3]; 30 μM, listed as MC-12) was “essentially eliminated NF-κB activation” and the “DSS-induced NF-κB-DNA binding activity” value ([3]; 300 μM, listed as MC 12) was “significantly blocked this effect”. The “DSS-induced NF-κB-DNA binding activity” value ([3]; 300 μM, listed as MC-12) was “essentially eliminated NF-κB activation”.

Reference: US20130261066A1, “TREATMENT OF INFLAMMATORY BOWEL DISEASES USING A TRIPEPTIDE” (THE RESEARCH FOUNDATION OF STATE UNIVERSITY OF NEW YORK, priority 2010, published 2013)
